# Measurements from patent US20020115649A1, “Use of texaphyrins in macrophage-mediated disease” (Pharmacyclics, Inc., priority 1998, published 2002).
# What was measured:
# [1] = Redox potentials listing; type: physicochemical
# Description: Texaphyrin is a known radiosensitizer. Not wanting to be bound by theory, texaphyrin is thought to act as a radiosensitizer in the following manner. Oxygen is the ultimate electron acceptor in physiological systems. However, texaphyrins have a redox potential below that of oxygen.
# [2] = test system: restenosis of balloon-injured carotid artery; assay: Radiation therapy of balloon-injured rat carotid artery in preventing restenosis; type: in vivo, Sprague-Dawley male rats; settings: 2 weeks post-treatment
# Description: The rat carotid model was used for the studies. Sprague-Dawley male rats weighing about 400-450 g were anesthetized and maintained with Ketamine/Rompun cocktail via the animal's tail vein. The rats were shaved to expose the chest and neck, and a midline incision was made to expose the left common carotid artery, the external carotid artery, and the internal carotid artery. The internal carotid artery was temporally ligated. A small incision was made in the external carotid artery and a 2F Fogarty arterial embolectomy balloon catheter (Baxter Cardiovascular Group, Irvine, Calif.) was introduced from the external carotid artery to the common carotid artery. The balloon was inflated with 0.2 ml of saline and withdrawn from near to the common carotid bifurcation with a rotating motion to produce uniform endothelial denudation and medial stretching in the common carotid artery. After 3 passages, the catheter was removed, the external carotid artery was ligated, and the internal carotid artery was untied. The incision was then closed.
# GdT2BET (2mM in 5% mannitol) at 20 μmol/kg was injected via the tail vein 22 hours following balloon denudation of the carotid artery. Radiation therapy was performed 2 hours after the gadolinium texaphyrin injection. The treatment area was marked and a 250 kV X-ray radiation machine was used. […]
# [3] = Cardiac toxicity study for texaphyrin and doxorubicin; type: in vivo, Sprague Dawley rats; settings: 20 micromoles/kg i.v. 1 hour after doxorubicin 1 mg/kg, once a week for twelve weeks; versus doxorubicin alone
# Experimental: To test whether gadolinium texaphyrin exacerbates cardiac toxicity, Sprague Dawley rats were injected intravenously either with 5% mannitol (10 ml/kg, n=6), or doxorubicin (1 mg/kg, n=14), or doxorubicin (1 mg/kg) followed 1 hour later by gadolinium texaphyrin (20 micromoles/kg, n=14). The dosing schedule was repeated once a week for twelve weeks. Animals were sacrificed one week post the last dose, and hearts were fixed in formalin.
# [4] = test system: macrophage of restenotic tissue; assay: Photodynamic therapy of balloon-induced iliac artery lesions (local delivery plus intravascular light); type: in vivo, New Zealand White rabbits
# Experimental: Bilateral iliac artery lesions were induced in 9 male New Zealand White rabbits (NZW) after being on a high cholesterol diet (1%, Dyets, Bethlehem, Pa.) for 3 weeks. Each rabbit was anesthetized using a mixture of ketamine […]. The right carotid artery was exposed, carefully excised and a 5 Fr sheath (USCI) inserted into the descending aorta under fluoroscopic guidance. A 3.0 mm angioplasty balloon was advanced into the right or left iliac artery and then inflated distal to the deep femoral artery three times at 8 atm for 30 seconds. Subsequently, the same procedure was repeated in the contralateral iliac artery. Animals were maintained on the high cholesterol diet.
# Six weeks after the denudation, each rabbit was reanesthetized. The left carotid artery was exposed, carefully excised and a 6 Fr sheath (USCI) inserted into the descending aorta under fluoroscopic guidance. A local drug delivery balloon (3 mm, Scimed, Minneapolis, Minn.) was advanced to the left or right iliac artery and placed at the same position as the previous balloon injury site. The proximal end of the delivery catheter was placed at the internal iliac artery under fluoroscopic control as a landmark reference. The balloon was inflated to 6 atm and 1 μmol/kg lutetium texaphyrin (LuT2BET) (2 mM in 5% mannitol) was infused intraarterially adjacent to the atheroma at a rate of 0.2 ml/min. Fifteen minutes post infusion a 0.9 mm optical fiber with a 3 cm cylindrical diffuser (Laserscope Inc., San Jose, Calif.) connected to an argon pumped dye laser (732 nm, Coherent Inc., Palo Alto, Calif.) delivered intravascular light at 180 J/cmF. One rabbit served as a light alone (no LuT2BET) control.
# Two weeks following light treatment, each animal was euthanized and both iliac arteries were carefully removed from the adjacent tissue. Care was taken to harvest the exact portion of the artery where local drug delivery occurred by matching the anatomy with the respective fluoroscopic picture. The contralateral artery in the LuT2BET-treated rabbit served as a sensitizer alone control vessel. The vessels were fixed in 10% buffered formalin, embedded in paraffin and stained sequentially with RAM 11 (an antibody that binds with a cytoplasmic antigen in rabbit macrophages (DAKO)), and hematoxylin and eosin (H&E) for light microscopic analysis and planimetry.
# [5] = Maximum tolerated dose of lutetium texaphyrin in one study; type: in vivo; settings: intravenous injection; determined in one study
# Experimental: Administration for Photodynaminc Therapy: By way of example, lutetium texaphyrin is administered in solution containing 2 mg/ml optionally in 5% mannitol, USP. Dosages of about 1.0 or 2.0 mg/kg to about 4.0 or 5.0 mg/kg, preferably 3.0 mg/kg may be employed, up to a maximum tolerated dose that was determined in one study to be 5.2 mg/kg. The texaphyrin is administered by intravenous injection, followed by a waiting period of from as short a time as several minutes or about 3 hours to as long as about 72 or 96 hours (depending on the treatment being effected) to facilitate intracellular uptake and clearance from the plasma and extracellular matrix prior to the administration of photoirradiation.
# [6] = test system: artery closure after angioplasty; settings: in vivo; cited from earlier work
molecule,measurement,setting,value
CC(=O)O.CC(=O)O.CCc1c(CC)c2cc3nc(cnc4cc(OCCOCCOCCOC)c(OCCOCCOCCOC)cc4ncc4nc(cc1[n-]2)C(CCCO)=C4C)C(C)=C3CCCO.[Gd] [GdT2B2],redox potential,[1],+0.08 V.
CC(=O)[O-].CC(=O)[O-].CCc1c(CC)c2cc3nc(cnc4cc(OCCOCCOCCOC)c(OCCOCCOCCOC)cc4ncc4nc(cc1[n-]2)C(CCCO)=C4C)C(C)=C3CCCO.O.[Gd+3] [GdT2BET],"restenosis in H&E sections, animals of four treated","[2]; 20 μmol/kg i.v. 22 hours after balloon denudation, 7 Gray X-ray 2 hours later, controls 100% restenosis",three had no evidence of restenosis
same,"restenosis, lumen circumference affected in the fourth animal",[2]; 20 μmol/kg i.v. plus 7 Gray,up to 40%
same,cardiac toxicity (histologic evaluation),[3],did not significantly exacerbate cardiac toxicity
CC(=O)[O-].CC(=O)[O-].CCc1c(CC)c2cc3nc(cnc4cc(OCCOCCOCCOC)c(OCCOCCOCCOC)cc4ncc4nc(cc1[n-]2)C(CCCO)=C4C)C(C)=C3CCCO.O.[Lu+3] [LuT2BET],macrophages in treated lesion in intima (RAM 11 quantitative analysis),"[4]; 1 μmol/kg intraarterial plus 732 nm light, two weeks after light, versus 21±18%, P<<0.01",5.1±5.3%
same,macrophages in treated lesion in media (RAM 11 quantitative analysis),"[4]; 1 μmol/kg intraarterial plus 732 nm light, two weeks after light, versus 22±20%, P<<0.01",7.7±10%
same,Mean % plaque area in the treated segments,"[4]; 1 μmol/kg intraarterial, 732 nm light 15 min post infusion, two weeks after light, nontreated segments 81±12%, P<<0.01",73±10%
same,destruction of activated macrophages,[4]; with photoirradiation,selectively destroys activated macrophages
same,maximum tolerated dose,[5],5.2 mg/kg
"Abciximab (antibody, chains of the INN, looked up, V domains shown, Fab) VH: EVQLQQSGTVLARPGASVKMSCEASGYTFTNYWMHWVKQRPGQGLEWIGAIYPGNSDTSYIQKFKGKAKLTAVTSTTSVYMELSSLTNEDSAVYYCTLYDGYYVFAYWGQGTLVTVSA VL: EIVLTQSPVTLSVTPGDSVSLSCRASRDISNNLHWFQQTSHESPRLLIKYASQSMSGIPSRFSGSGSGTDFTLSINSVETEDFGMYFCQQTNSWPYTFGGGTKLEIK",reduction of the risk of artery closure after angioplasty,[6],up to 70%
